IC50 data for 38 molecules are collected here from patent US9169224B2, “Piperazinyl and piperidinyl ureas as modulators of fatty acid amide hydrolase” (Janssen Pharmaceutica NV, priority 2004, dated 2015).

Where a name gives a salt, the structure may show the parent alone.

FAAH, sequence (O00519 whole entry): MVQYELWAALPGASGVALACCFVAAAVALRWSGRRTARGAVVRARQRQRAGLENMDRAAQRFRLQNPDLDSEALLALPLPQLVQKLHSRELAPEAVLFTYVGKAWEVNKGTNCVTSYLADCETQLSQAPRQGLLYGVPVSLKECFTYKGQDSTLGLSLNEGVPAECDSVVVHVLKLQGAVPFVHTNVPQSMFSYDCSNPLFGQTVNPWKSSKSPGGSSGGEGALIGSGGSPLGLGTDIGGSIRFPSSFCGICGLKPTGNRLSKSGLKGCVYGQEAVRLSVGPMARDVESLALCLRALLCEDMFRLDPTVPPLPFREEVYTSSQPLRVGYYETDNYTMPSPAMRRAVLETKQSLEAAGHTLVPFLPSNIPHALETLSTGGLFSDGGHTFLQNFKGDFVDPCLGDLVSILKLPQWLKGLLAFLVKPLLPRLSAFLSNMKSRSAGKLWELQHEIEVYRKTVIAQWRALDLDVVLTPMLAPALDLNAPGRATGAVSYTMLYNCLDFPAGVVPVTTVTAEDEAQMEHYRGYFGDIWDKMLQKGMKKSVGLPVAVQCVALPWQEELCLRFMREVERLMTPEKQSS

The target in one assay is FAAH (Homo sapiens (Human), UniProt O00519). The assay is described as follows: Assay Method 1: FAAH assay, T84 cell homogenate, 3H-anandamide hydrolysis. The format is biochemical. The note with it: 3H-AEA tracer 200 nM, 1 h at rt. How it is done:
T84 frozen pellets (contents of 1-4×15 cm culture dishes) were homogenized in 300 mL of FAAH assay buffer (125 mM Tris, 1 mM EDTA, 0.2% glycerol, 0.02% Triton X-100, 0.4 mM Hepes, pH 9). The assay mixture was prepared from 50 μL of the cell homogenate, 10 μL of the test compound, and 40 μL of anandamide [1-3H-ethanolamine] (^3H-AEA; Perkin-Elmer, 10.3 Ci/mmol), which was added last, for a final tracer concentration of 200 nM. The reaction mixture was incubated at rt for 1 hour (h). During the incubation, 96-well Multiscreen filter plates (catalog number MAFCNOB50; Millipore, Bedford, Mass., USA) were loaded with 25 μL of activated charcoal (Multiscreen column loader, catalog number MACL09625, Millipore) and washed once with 100 μL of MeOH. Also during the incubation, 96-well DYNEX MicroLite plates (catalog number NL510410) were loaded with 100 μL of MicroScint40 (catalog number 6013641, Packard Bioscience, Meriden, Conn., USA). After the 1 h incubation, 60 μL of the reaction mixture were transferred to the charcoal plates, which were then assembled on top of the DYNEX plates using Centrifuge Alignment Frames (catalog number MACF09604, Millipore). The unbound, labeled ethanolamine was centrifuged through to the bottom plate (5 min at 2000 rpm), which was preloaded with the scintillant, as described above. The plates were sealed and left at rt for 1 h before counting on a Hewlett Packard TopCount.
What is called IC50 is the point on the concentration scale where inhibition reaches its midpoint. The low end stands for higher potency, the high end for lower potency. In the case of `O=C(Nc1ccccc1Cl)N1CCN(Cc2ccc(Br)c(Br)c2)CC1` [Example 93, 4-(3,4-Dibromo-benzyl)-piperazine-1-carboxylic acid (2-chloro-phenyl)-amide], it took 460 nM to reach half-maximal inhibition (IC50). That is a sub-micromolar value.

Take `CCOc1ccc(CN2CCN(C(=O)Nc3ccccc3)CC2)cc1` [Example 129, 4-(4-Ethoxy-benzyl)-piperazine-1-carboxylic acid phenylamide]: the IC50 was 2000 nM. Against the preceding molecule, the IC50 is about 4.3-fold higher.

For the molecule `O=C(Nc1ccccc1)N1CCN(Cc2ccc3[nH]ccc3c2)CC1` [Example 43, 4-(1H-Indol-5-ylmethyl)-piperazine-1-carboxylic acid phenylamide], inhibition was half-maximal at 4000 nM (IC50).

In turn, `Cc1ccc(Oc2cccc(CN3CCN(C(=O)Nc4ccccc4)CC3)c2)cc1` [Example 62, 4-(3-p-Tolyloxy-benzyl)-piperazine-1-carboxylic acid phenylamide] gave an IC50 of 18 nM.

`O=C(Nc1ccccc1)N1CCN(Cc2cnc3ccccc3c2)CC1` [Example 23, 4-Quinolin-3-ylmethyl-piperazine-1-carboxylic acid phenylamide] came in with an IC50 of 73 nM. Against the preceding molecule, the IC50 is about 4.1-fold higher.

For `O=C(Nc1ccccc1)N1CCN(Cc2cccc(S(=O)(=O)c3ccc(Cl)cc3)c2)CC1` [Example 72, 4-[3-(4-Chloro-benzenesulfonyl)-benzyl]-piperazine-1-carboxylic acid phenylamide], the IC50 turned out to be 110 nM. Compared with the last molecule, the IC50 is about 1.5-fold higher.

Consider `O=C(Nc1ccncc1)N1CCN(Cc2ccc(Br)c(Br)c2)CC1` [Example 116, 4-(3,4-Dibromo-benzyl)-piperazine-1-carboxylic acid pyridin-4-ylamide], for which the midpoint of inhibition, the IC50, lay at 240 nM.

In turn, `O=C(Nc1ccc(Cl)cc1)N1CCN(Cc2ccc(Br)c(Br)c2)CC1` [Example 95, 4-(3,4-Dibromo-benzyl)-piperazine-1-carboxylic acid (4-chloro-phenyl)-amide] returned an IC50 of 500 nM.

As for `Cc1cccc2cc(CN3CCN(C(=O)Nc4ccccc4)CC3)c(Cl)nc12` [Example 75, 4-(2-Chloro-8-methyl-quinolin-3-ylmethyl)-piperazine-1-carboxylic acid phenylamide], the midpoint of inhibition, the IC50, lay at 24 nM.

Regarding `COc1ccc(CN2CCN(C(=O)Nc3ccccc3)CC2)cc1` [Example 36, 4-(4-Methoxy-benzyl)-piperazine-1-carboxylic acid phenylamide], the IC50 came to 470 nM. Against the preceding molecule, the IC50 is about 20-fold higher.

Molecule `O=C(Nc1ccccc1)N1CCN(Cc2cccc(Oc3ccccc3)c2)CC1` [Example 28, 4-(3-Phenoxy-benzyl)-piperazine-1-carboxylic acid phenylamide] yielded a half-maximal inhibitory concentration (IC50) of 80 nM.

`O=C(Nc1ccccc1)N1CCN(Cc2ccccc2Br)CC1` [Example 84, 4-(2-Bromo-benzyl)-piperazine-1-carboxylic acid phenylamide] returned an IC50 of 2500 nM.

The molecule `CCCOc1cccc(CN2CCN(C(=O)Nc3ccccc3)CC2)c1` [Example 120, 4-(3-Propoxy-benzyl)-piperazine-1-carboxylic acid phenylamide] came in with a half-maximal inhibitory concentration (IC50) of 170 nM.

With `O=C(Nc1ccccc1)N1CCN(Cc2cc3ccccc3c3ccccc23)CC1` [Example 67, 4-Phenanthren-9-ylmethyl-piperazine-1-carboxylic acid phenylamide], the half-inhibitory concentration (IC50) came to 8000 nM.

With `O=C(Nc1ccccc1)N1CCN(Cc2cccc(OCCN3CCCCC3)c2)CC1` [Example 126, 4-[3-(2-Piperidin-1-yl-ethoxy)-benzyl]-piperazine-1-carboxylic acid phenylamide], the IC50 turned out to be 2000 nM. This IC50 is about 4-fold lower than that of the molecule before.

`O=C(Nc1ccccc1)N1CCN(Cc2cccc(OCc3ccccc3)c2)CC1` [Example 25, 4-(3-Benzyloxy-benzyl)-piperazine-1-carboxylic acid phenylamide]: inhibition was half-maximal at 57 nM (IC50).

For the molecule `O=C(Nc1cccc(F)c1)N1CCN(Cc2ccc(Br)c(Br)c2)CC1` [Example 85, 4-(3,4-Dibromo-benzyl)-piperazine-1-carboxylic acid (3-fluoro-phenyl)-amide], 19 nM corresponded to half-maximal inhibition (IC50). This IC50 is about 3-fold lower than that of the molecule before.

`COc1ccccc1NC(=O)N1CCN(Cc2ccc(Br)c(Br)c2)CC1` [Example 91, 4-(3,4-Dibromo-benzyl)-piperazine-1-carboxylic acid (2-methoxy-phenyl)-amide]: inhibition was half-maximal at 130 nM (IC50).

`O=C(Nc1ccccc1)N1CCN(Cc2ccc(I)cc2)CC1` [Example 24, 4-(4-Iodo-benzyl)-piperazine-1-carboxylic acid phenylamide] registered an IC50 of 52 nM.

Molecule `O=C(Nc1ccccc1)N1CCN(Cc2cccc(Oc3ccc(Cl)c(Cl)c3)c2)CC1` [Example 61, 4-[3-(3,4-Dichloro-phenoxy)-benzyl]-piperazine-1-carboxylic acid phenylamide] had an IC50 of 20 nM. This IC50 lies about 2.6-fold lower than the previous one.

Regarding `Cc1cccc(CN2CCN(C(=O)Nc3ccccc3)CC2)c1` [Example 42, 4-(3-Methyl-benzyl)-piperazine-1-carboxylic acid phenylamide], the IC50 is 2000 nM.

As for `O=C(Nc1ccccc1)N1CCN(Cc2ccc(Cl)c(C(F)(F)F)c2)CC1` [Example 82, 4-(4-Chloro-3-trifluoromethyl-benzyl)-piperazine-1-carboxylic acid phenylamide], the midpoint of inhibition, the IC50, lay at 80 nM.

In turn, `O=C(Nc1ccccc1)N1CCN(Cc2ccc3cccc(Cl)c3n2)CC1` [Example 55, 4-(8-Chloro-quinolin-2-ylmethyl)-piperazine-1-carboxylic acid phenylamide] gave an IC50 of 28 nM.

For the molecule `COC(=O)c1ccc(Oc2cccc(CN3CCN(C(=O)Nc4ccccc4)CC3)c2)cc1` [Example 133, 4-[3-(4-Phenylcarbamoyl-piperazin-1-ylmethyl)-phenoxy]-benzoic acid methyl ester], the IC50 was determined as 50 nM. This IC50 lies about 1.8-fold higher than the previous one.

On to `O=C(Nc1ccccc1)N1CCN(CCc2ccccc2)CC1` [Example F, 4-Phenethyl-piperazine-1-carboxylic acid phenylamide, reference compound], for which the IC50 was over 10000 nM.

Consider `COc1cccc(NC(=O)N2CCN(Cc3cnc4ccccc4c3)CC2)c1` [Example 110, 4-Quinolin-3-ylmethyl-piperazine-1-carboxylic acid (3-methoxy-phenyl)-amide], for which 200 nM corresponded to half-maximal inhibition (IC50). This lies in the sub-micromolar range.

`COc1ccc2cc(CN3CCN(C(=O)Nc4ccccc4)CC3)ccc2c1` [Example 66, 4-(6-Methoxy-naphthalen-2-ylmethyl)-piperazine-1-carboxylic acid phenylamide]: the IC50 was 1600 nM.

`COc1ccccc1NC(=O)N1CCN(Cc2cnc3ccccc3c2)CC1` [Example 102, 4-Quinolin-3-ylmethyl-piperazine-1-carboxylic acid (2-methoxy-phenyl)-amide] came in with an IC50 of 540 nM.

Turning to `COc1cccc(NC(=O)N2CCN(Cc3ccc(Br)c(Br)c3)CC2)c1` [Example 87, 4-(3,4-Dibromo-benzyl)-piperazine-1-carboxylic acid (3-methoxy-phenyl)-amide], the concentration for half-maximal inhibition (IC50) is 48 nM.

On to `O=C(Nc1ccccc1)N1CCN(Cc2cccc(Br)c2)CC1` [Example C, 4-(3-Bromo-benzyl)-piperazine-1-carboxylic acid phenylamide, reference compound], for which the IC50 worked out at 280 nM.

Molecule `CC(C)Oc1ccc(CN2CCN(C(=O)Nc3ccccc3)CC2)cc1` [Example 48, 4-(4-Isopropoxy-benzyl)-piperazine-1-carboxylic acid phenylamide] showed an IC50 of 3500 nM.

Turning to `CC(C)COc1cccc(CN2CCN(C(=O)Nc3ccccc3)CC2)c1` [Example 121, 4-(3-Isobutoxy-benzyl)-piperazine-1-carboxylic acid phenylamide], the half-maximal inhibitory concentration (IC50) was found to be 210 nM.

`O=C(Nc1ccccc1)N1CCN(Cc2cccc(Oc3ccc4ccccc4c3)c2)CC1` [Example 131, 4-[3-(Naphthalen-2-yloxy)-benzyl]-piperazine-1-carboxylic acid phenylamide]: the IC50 came to 33 nM. This IC50 lies about 6.4-fold lower than the previous one.

In turn, `CS(=O)(=O)Oc1cccc(CN2CCN(C(=O)Nc3ccccc3)CC2)c1` [Example 137, Methanesulfonic acid 3-(4-phenylcarbamoyl-piperazin-1-ylmethyl)-phenyl ester] showed an IC50 of 1000 nM.

On to `Cc1ccc(CN2CCN(C(=O)Nc3ccccc3)CC2)cc1C` [Example D, 4-(3,4-Dimethyl-benzyl)-piperazine-1-carboxylic acid phenylamide, reference compound], for which half-maximal inhibition (IC50) was put at 630 nM.

For `O=C(Nc1ccccc1)N1CCN(Cc2ccc(Br)cc2)CC1` [Example 27, 4-(4-Bromo-benzyl)-piperazine-1-carboxylic acid phenylamide], the IC50 is 69 nM. Against the preceding molecule, the IC50 is about 9.1-fold lower.

Staying with this assay, now noted: 3H-AEA tracer 200 nM, 1 h at rt, dihydrochloride.
In turn, `O=C(Nc1ccccc1)N1CCN(Cc2ccc3ccccc3n2)CC1` [Example 163, 4-Quinolin-2-ylmethyl-piperazine-1-carboxylic acid phenylamide dihydrochloride] yielded an IC50 of 23 nM.

Staying with this assay, now noted: 3H-AEA tracer 200 nM, 1 h at rt, hydrochloride.
As to `O=C(Nc1ccccc1)N1CCN(Cc2ccc3c(c2)OCO3)CC1` [Example B1, 4-Benzo[1,3]dioxol-5-ylmethyl-piperazine-1-carboxylic acid phenylamide hydrochloride, reference compound], the IC50 is 1200 nM.
